Source: patent US20260216348A1, “IRAK DEGRADATION AGENT AND USE THEREOF” (Increland, priority 2023, published 2026)

Columns and labels:
[1] = system: LPS/IL-1β-induced IL-6 secretion in human peripheral blood mononuclear cells (PBMCs); assay: Inhibition of LPS/IL-1β-induced IL-6 secretion in human PBMCs (IL-6 ELISA); type: cell-based; conditions: PBMC, LPS 10 ng/mL + IL-1β 20 ng/mL, 24 h pre-incubation, 20 h stimulation
Description: This experiment was carried out in RPMI 1640 medium containing 10% FBS and 1% penicillin/streptomycin, with each of the compounds at an initial test concentration of 1 μM.
The compound was dissolved in DMSO to prepare a stock solution, which was serially diluted into some working solutions with a 5-fold concentration gradient using the culture medium and then added to a 96-well plate at 10 μL per well. PBMCs (Batch No.: P122101102C; Milecell Biotechnology Inc.) were counted and diluted to a cell concentration of about 1.3×10^6 cells/mL, and then added to the aforementioned compound-containing 96-well plate at 150 μL per well. The system was mixed well and incubated in a 5% CO2 incubator at 37° C. for 24 h. Then 5 μL of LPS (final concentration: 10 ng/mL) and 5 μL of IL-1β (final concentration: 20 ng/mL) were added to each well, respectively, and the culture was continued for 20 h in a 5% CO2 incubator at 37° C. After incubation, the 96-well plate was centrifuged at 2000 rpm for 4 min. The supernatant was collected and diluted 200-fold, then detected using an IL-6 ELISA kit. The OD450 values were read, and converted to IL-6 concentrations based on a standard curve. The dose-response curves were fitted using GraphPad 8.0 to calculate the IC50 values.

IRAK4 = target: T1, IRAK4 (Homo sapiens, UniProt Q9NWZ3); assay: IRAK4 protein degradation in THP1 cells (Western blot); type: cell-based; conditions: THP-1 cells, 24 h
T1 construct: Effect of the Compounds on IRAK4 Protein Degradation in THP1 Cells; endogenous in cells; host or cells: THP-1 cells
T1 sequence (Q9NWZ3 1-460): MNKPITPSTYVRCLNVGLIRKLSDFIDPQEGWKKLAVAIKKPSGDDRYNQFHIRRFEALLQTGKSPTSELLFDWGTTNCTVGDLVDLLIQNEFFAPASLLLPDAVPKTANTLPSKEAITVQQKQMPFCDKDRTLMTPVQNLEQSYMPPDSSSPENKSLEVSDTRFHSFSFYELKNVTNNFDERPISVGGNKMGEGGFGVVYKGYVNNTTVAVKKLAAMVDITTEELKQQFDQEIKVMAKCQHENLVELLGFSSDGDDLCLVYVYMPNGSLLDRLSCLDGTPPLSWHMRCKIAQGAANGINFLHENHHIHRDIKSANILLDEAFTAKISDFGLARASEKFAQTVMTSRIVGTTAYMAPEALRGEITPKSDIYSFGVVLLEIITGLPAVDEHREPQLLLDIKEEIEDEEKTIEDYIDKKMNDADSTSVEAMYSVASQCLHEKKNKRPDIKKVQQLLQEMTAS
Description: THP-1 cells were seeded into a 96-well cell culture plate, with 2×10^5 cells and 90 μL of culture medium per well. The cell culture plate was cultured in an incubator with 5% CO2 at 37° C. overnight. The compound was dissolved in DMSO to prepare a stock solution, which was serially diluted into a series of working solutions with a 5-fold concentration gradient using the culture medium and then added to the aforementioned 96-well plate at 10 μL per well. The cell culture plate was further incubated for 24 h in a 5% CO2 incubator at 37° C. After incubation, the 96-well plate was centrifuged and the supernatant was discarded, followed by adding 40 μL of cell lysis buffer containing […]/phosphatase inhibitors to each well for sufficient lysis on an ice bath. Protein quantification was performed using the BCA protein quantification kit, followed by the preparation of Western blot samples. […] After electrophoresis, protein transfer was performed using a PVDF membrane under ice bath conditions for 1 h. After the transfer was completed, the PVDF membrane was blocked with gentle shaking in 5% skim milk at room temperature for 1 h. After blocking, the PVDF membrane was incubated with the primary antibody overnight with gentle shaking at 4° C. The PVDF membrane was washed 3 times with TBST, then the secondary antibody was added and incubated for 1 h with gentle shaking at room temperature, followed by washing of the PVDF membrane with TBST for 3 times. After the washes were completed, the chemiluminescent substrate was added; the PVDF membrane was scanned using a Clinx imager, semi-quantitative analysis was performed with ImageJ software, and the DC50 was calculated using GraphPad Prism 8.0.

Row | Structure (SMILES) | IC50 [1] [nM] | DC50 (IRAK4) [nM]
1 | CN(C)c1cc2nn(C3CCN(C[C@H]4CC[C@H](n5cc6ccc(C7CCC(=O)NC7=O)cc6n5)CC4)CC3)cc2cc1NC(=O)c1cnn2cccnc12 (some centres unmarked) [TM-5] | 0.26 | 4.62
2 | CN(C)c1cc2nn(C3CCN(C[C@H]4CC[C@H](n5cc6cc(C7CCC(=O)NC7=O)ccc6n5)CC4)CC3)cc2cc1NC(=O)c1cnn2cccnc12 (some centres unmarked) [TM-7] | 0.18 | 3.73
3 | CN(C)c1cc2nn([C@H]3CC[C@H](CN4CCC(n5cc6cc(N7CCC(=O)NC7=O)c(F)cc6n5)CC4)CC3)cc2cc1NC(=O)c1cnn2cccnc12 [TM-9] | 2.03 | 5.41
4 | CN(C)c1cc2nn([C@H]3CC[C@H](CN4CCC(n5cc6cc(F)c(N7CCC(=O)NC7=O)cc6n5)CC4)CC3)cc2cc1NC(=O)c1cnn2cccnc12 [TM-10] | 1.34 | 4
5 | CN(C)c1cc2nn([C@H]3CC[C@H](CN4CC[C@@H](n5cc6cc(N7CCC(=O)NC7=O)ccc6n5)[C@@H](F)C4)CC3)cc2cc1NC(=O)c1cnn2cccnc12 [TM-15] | 4 | 1.41
6 | CN(C)c1cc2nn([C@H]3CC[C@H](CN4CC[C@@H](n5cc6cc(N7CCC(=O)NC7=O)ccc6n5)[C@H](F)C4)CC3)cc2cc1NC(=O)c1cnn2cccnc12 [TM-16] | 4.59 | 0.41
7 | CN(C)c1cc2nn([C@H]3CC[C@H](CN4CC[C@H](n5cc6cc(N7CCC(=O)NC7=O)ccc6n5)[C@@H](F)C4)CC3)cc2cc1NC(=O)c1cnn2cccnc12 [TM-17] | 3.37 | 1.19
8 | CN(C)c1cc2nn([C@H]3CC[C@H](CN4CC[C@H](n5cc6cc(N7CCC(=O)NC7=O)ccc6n5)[C@H](F)C4)CC3)cc2cc1NC(=O)c1cnn2cccnc12 [TM-18] | 3.72 | 1.2
9 | C[C@H]1CN(C[C@H]2CC[C@H](n3cc4cc(NC(=O)c5cnn6cccnc56)c(N(C)C)cc4n3)CC2)CC[C@@H]1n1cc2ccc(N3CCC(=O)NC3=O)cc2n1 [TM-27] | 1.49 | 4.27
10 | CN(C)c1cc2nn([C@H]3CC[C@H](CN4CC[C@@H](n5cc6ccc(N7CCC(=O)NC7=O)cc6n5)[C@@H](F)C4)CC3)cc2cc1NC(=O)c1cnn2cccnc12 [TM-29] | 0.88 | 1.13
11 | CN(C)c1cc2nn([C@H]3CC[C@H](CN4CC[C@@H](n5cc6ccc(N7CCC(=O)NC7=O)cc6n5)[C@H](F)C4)CC3)cc2cc1NC(=O)c1cnn2cccnc12 [TM-30] | 1.05 | 1.33
12 | CN(C)c1cc2nn([C@H]3CC[C@H](CN4CC[C@H](n5cc6ccc(N7CCC(=O)NC7=O)cc6n5)[C@@H](F)C4)CC3)cc2cc1NC(=O)c1cnn2cccnc12 [TM-31] | 3.29 | 4.06
13 | CN(C)c1cc2nn([C@H]3CC[C@H](CN4CC[C@H](n5cc6ccc(N7CCC(=O)NC7=O)cc6n5)[C@H](F)C4)CC3)cc2cc1NC(=O)c1cnn2cccnc12 [TM-32] | 1.21 | 1.4
14 | CO[C@H]1CN(C[C@H]2CC[C@H](n3cc4cc(NC(=O)c5cnn6cccnc56)c(N(C)C)cc4n3)CC2)CC[C@H]1n1cc2ccc(N3CCC(=O)NC3=O)cc2n1 [TM-33] | 0.87 | 2.86
15 | CN(C)c1cc2nn([C@H]3CC[C@H](CN4CC[C@@H](n5cc6cc(N7CCC(=O)NC7=O)c(F)cc6n5)[C@H](F)C4)CC3)cc2cc1NC(=O)c1cnn2cccnc12 [TM-41] | 3.89 | < 1
16 | CN(C)c1cc2nn([C@H]3CC[C@H](CN4CC[C@@H](n5cc6cc(N7CCC(=O)NC7=O)c(F)cc6n5)[C@@H](F)C4)CC3)cc2cc1NC(=O)c1cnn2cccnc12 [TM-42] | 1.65 | 0.93

Row | Structure (SMILES) | IC50 [1] [nM] | DC50 (IRAK4) [nM]
17 | O=C1CCN(c2ccc3cn(C4CCN(C[C@H]5CC[C@H](n6cc7cc(NC(=O)c8cnn9cccnc89)c(N8CCOCC8)cc7n6)CC5)CC4)nc3c2)C(=O)N1 [TM-43] | 8.92 | 4.31
18 | CN(C)c1cc2nn(C3CCN(C[C@H]4CC[C@H](n5cc6cc(N7CCC(=O)NC7=O)c(F)cc6n5)CC4)CC3)cc2cc1NC(=O)c1cnn2cccnc12 [TM-51] | 3.14 | 23.3
19 | CN(C)c1cc2nn([C@H]3CC[C@H](CN4CCCN(c5nc6cc(N7CCC(=O)NC7=O)ccc6s5)CC4)CC3)cc2cc1NC(=O)c1cnn2cccnc12 [TM-59] | 10.9 | 9.64
20 | CN(C)c1cc2nn([C@H]3CC[C@H](CN4CC5(CCN(c6nc7ccc(N8CCC(=O)NC8=O)cc7s6)CC5)C4)CC3)cc2cc1NC(=O)c1cnn2cccnc12 [TM-67] | 4.01 | 19.9
21 | CN(C)c1cc2nn([C@H]3CC[C@H](CN4CCN(c5nc6cc(C7CCC(=O)NC7=O)ccc6o5)CC4)CC3)cc2cc1NC(=O)c1cnn2cccnc12 (some centres unmarked) [TM-106] | 2.52 | 3.82
22 | CN(C)c1cc2nn([C@H]3CC[C@H](CN4CC[C@H](n5cc6cc(N7CCC(=O)NC7=O)c(F)cc6n5)[C@H](F)C4)CC3)cc2cc1NC(=O)c1cnn2cccnc12 [TM-130] | 5.12 | 4.26
23 | CN(C)c1cc2nn([C@H]3CC[C@H](CN4CCC(c5nc6cc(C7CCC(=O)NC7=O)c(F)cc6o5)CC4)CC3)cc2cc1NC(=O)c1cnn2cccnc12 (some centres unmarked) [TM-147] | – | 11
24 | CN(C)c1cc2nn([C@H]3CC[C@H](CN4CC[C@H](n5cc6cc(C7CCC(=O)NC7=O)ccc6n5)[C@@H](F)C4)CC3)cc2cc1NC(=O)c1cnn2cccnc12 (some centres unmarked) [TM-168] | – | 1.78
25 | CN(C)c1cc2nn([C@H]3CC[C@H](CN4C[C@@H]5[C@H](C4)[C@H]5n4cc5ccc(N6CCC(=O)NC6=O)cc5n4)CC3)cc2cc1NC(=O)c1cnn2cccnc12 [TM-182] | – | 3.82
26 | CN(C)c1cc2nn([C@H]3CC[C@H](CN4CCC(c5nc6ccc(N7CCC(=O)NC7=O)cc6o5)CC4)CC3)cc2cc1NC(=O)c1cnn2cccnc12 [TM-186] | – | 0.98
27 | CN(C)c1cc2nn([C@H]3CC[C@H](CN4C[C@@H](F)[C@H](n5cc6ccc(N7CCC(=O)NC7=O)cc6n5)C4)CC3)cc2cc1NC(=O)c1cnn2cccnc12 [TM-200] | – | 1.79
28 | CN(C)c1cc2nn(C3CCC(CN4CCC[C@H](n5cc6cc(N7CCC(=O)NC7=O)ccc6n5)C4)CC3)cc2cc1NC(=O)c1cnn2cccnc12 (some centres unmarked) [TM-204] | – | 1.69
29 | CN(C)c1cc2nn([C@H]3CC[C@H](CN4CC[C@H](F)[C@@H](n5cc6ccc(N7CCC(=O)NC7=O)cc6n5)C4)CC3)cc2cc1NC(=O)c1cnn2cccnc12 [TM-213] | – | 1.74
30 | CN(C)c1cc2nn([C@H]3CC[C@H](CN4CC[C@H](F)[C@@H](n5cc6cc(N7CCC(=O)NC7=O)ccc6n5)C4)CC3)cc2cc1NC(=O)c1cnn2cccnc12 [TM-214] | – | 1.21
31 | CN(C)c1cc2nn([C@H]3CC[C@H](CN4CC5(CC(n6cc7ccc(N8CCC(=O)NC8=O)cc7n6)C5)C4)CC3)cc2cc1NC(=O)c1cnn2cccnc12 [TM-215] | – | 0.95
